Measurements reported in patent US9211296B2, “Therapeutic compounds for blocking DNA synthesis of POX viruses” (priority 2007, dated 2015).
Entries after “also recorded” stand apart in the source; their conditions may differ. Read-outs that look alike come from different tables or passages of the source.

Key:
vaccinia virus WR [1] = test: microbe, parasite or virus in culture; type: cell-based; conditions: Orthopoxvirus vaccinia
vaccinia virus WR [2] = type: cell-based
[3] = target: vaccinia virus DNA synthesis (viral DNA polymerase and its associated factors) (Vaccinia virus, UniProt P06856); type: biochemical
vaccinia virus WR [4] = test: microbe, parasite or virus in culture; type: cell-based; conditions: for EC50: Orthopoxvirus vaccinia
WST-1 cytotoxicity assay = conditions: African green monkey, BS-C-1 cells
BS-C-1 cells = test: WST-1 cytotoxicity assay; conditions: for tox 20 h TC50 / tox 72 h TC50 / tox 120 h TC50: Table 6; for CC50: Table 4
[5] = Solubility in cell growth medium by light scattering; conditions: concentrations of the activity assays
Experimental: These 16 compounds were tested for cell protection and cytotoxicity over longer times (48 h and 72 h). […] The solubility of the 16 compounds was verified in cell growth medium over the range of concentrations used in the activity assays.

[6] = target: vaccinia triad (A20, D4, E9) (Vaccinia virus (strain Western Reserve) (VACV) (Vaccinia virus (strain WR)), UniProt P06856); type: biochemical
[7] = target: triad (A20, D4, E9) (Vaccinia virus (strain Western Reserve) (VACV) (Vaccinia virus (strain WR)), UniProt P06856); type: biochemical
BSC-1 cells = conditions: 100 μM
vaccinia virus [8] = test: microbe, parasite or virus in culture; type: cell-based; conditions: Orthopoxvirus vaccinia, BSC-1, 1 h, read-out: Inhibition of plaques
[9] = target: vaccinia E9 polymerase (Vaccinia virus (strain Western Reserve) (VACV) (Vaccinia virus (strain WR)), UniProt P06856); type: biochemical
vaccinia virus [10] = type: cell-based
vaccinia virus [11] = test: microbe, parasite or virus in culture; conditions: Orthopoxvirus vaccinia, BSC-1, 16 h, read-out: Plaque IC50
[12] = aCella-TOX GAPDH release cytotoxicity assay (viridicatumtoxin study); conditions: African green monkey, BSC-1 cells
[13] = 20 h, read-out: Plaque Reduction 20 h EC50
[14] = BSC-1, 20 h, read-out: plaque red EC50
[15] = read-out: DNA Synthesis Inhibition IC50
[16] = 20 h, read-out: Cell Protection 20 h EC50
[17] = BSC-1, 20 h, read-out: cell prot EC50
[18] = read-out: Cytotoxicity 20 h CC50, 20 h
[19] = read-out: Cytotoxicity 72 h CC50, 72 h
[20] = read-out: Cytotoxicity 120 h CC50, 120 h

| SMILES | EC50 (vaccinia virus WR [1]; [13]) | EC50 (vaccinia virus WR [1]; [14]) | Effect of dsDNA (vaccinia virus WR [2]) | trapped by dsDNA (vaccinia virus WR [2]) | IC50 [3, 15] | IC50 ([3]; read-out: DNA synth IC50) | Selectivity Index SI (vaccinia virus WR [4]) | selectivity index (vaccinia virus WR [4]) | EC50 (vaccinia virus WR [4]; [16]) | EC50 (vaccinia virus WR [4]; [17]) | tox 20 h TC50 (BS-C-1 cells; 20 h) | tox 72 h TC50 (BS-C-1 cells; 72 h) | tox 120 h TC50 (BS-C-1 cells; 120 h) | Solubility in cell growth medium [5] | CC50 (BS-C-1 cells; [18]) | CC50 (BS-C-1 cells; [20]) | further results |
| --- | --- | --- | --- | --- | --- | --- | --- | --- | --- | --- | --- | --- | --- | --- | --- | --- | --- |
| Cc1c(/N=C/c2cc(Br)cc(Br)c2Br)cccc1C(=O)O [Compound 7] | 75 µM | 75 µM | No | no | 26 µM | 26 µM | >2 | >2 | 100 µM | 100 µM | >200 µM | 38 µM | 20 µM |  |  |  | CC50 at 20 h (WST-1 cytotoxicity assay): > 200 µM; CC50 at 72 h (WST-1 cytotoxicity assay): 38 µM; CC50 at 120 h (WST-1 cytotoxicity assay): 20 µM |
| O=C1/C(=C/C2CCCO2)CC/C1=C\C1CCCO1 (centres unmarked) [Compound 16] | 50 µM | 50 µM | No | no | 239 µM | 239 µM | >1 | >1 | 100 µM | 100 µM | >100 µM | >100 µM | 50 µM | just slightly insoluble at the EC50 | > 100 µM |  |  |
| O=C(O)Cn1c2ccc(Cl)cc2c2nc3ccccc3nc21 [Compound 13] | 50 µM | 50 µM | No | no |  |  |  |  | 100 µM | 100 µM | >100 µM | 13 µM | 30 µM | just slightly insoluble at the EC50 | > 100 µM | 30 µM | CC50 (BS-C-1 cells; [19]): 13 µM |
| Cc1cc(OC(=O)c2ccco2)nc(SCc2c(Cl)cccc2Cl)n1 [Compound 8] | 75 µM | 75 µM | No | no | 52 µM | 52 µM | >2 | >2 | 100 µM | 100 µM | >100 µM | >100 µM | >100 µM | just slightly insoluble at the EC50 |  |  | CC50 at 20 h (WST-1 cytotoxicity assay): > 200 µM |
| Cc1cc(/N=C/c2cc(Cl)cc(Cl)c2O)no1 [Compound 6] | 75 µM | 75 µM | No | no | 30 µM | 30 µM | >2.1 | >2.1 | 95 µM | 95 µM | >200 µM | 50 µM | 20 µM |  | > 200 µM | 20 µM | CC50 at 72 h (WST-1 cytotoxicity assay): ~50 µM |
| O=C1CSC(=S)N1/N=C/c1ccc(Cl)c([N+](=O)[O-])c1 [NSC 124808] |  |  |  |  |  |  |  |  |  |  |  |  |  |  |  |  | Effect on synthesis of M13 DNA [6]: blocked by increasing concentrations; Effect on DNA synthesis by the triad on the distal template [7]: prevented DNA synthesis by the triad on the distal template; also recorded: blocked incorporation on the distal template; Targeted Activity (% Inhibition): Processivity [7]: Processivity (62%); Cell Cytotoxicity (BSC-1 cells): 21%; inhibition at 100 µM (vaccinia virus [8]): 36%; Effect on E9 polymerase activity on the uniform template [9]: not on the uniform template; also recorded: minimal effects |
| COC(=O)c1cccc2c1-c1ccccc1/C2=N\O [Compound 1] | 10 µM | 10 µM | No | no | 108 µM | 108 µM | 13.2 | 13.2 | 9.6 µM | 9.6 µM | 127 µM |  | 20 µM |  | 127 µM | 20 µM | selectivity index over 72 h (vaccinia virus WR [4]): 3.2 |
| N=C1/C(=C/c2coc3ccccc3c2=O)C(=O)N=C2SC=NN12 [Compound 14] | 150 µM | 150 µM | No | no | 75 µM | 75 µM | >1 | >1 | 188 µM | 188 µM | >200 µM | >200 µM | 50 µM |  | > 200 µM | 50 µM | CC50 (BS-C-1 cells; [19]): > 200 µM |
| CN(C)C1C(O)=C(C(N)=O)C(=O)C2(O)C(O)=C3C(=O)c4c(O)cccc4C(C)(O)C3CC12.CS(=O)(=O)O (centres unmarked) [NSC 69343, 4-(dimethylamino)-3,6,10,12,12a-pentahydroxy-6-methyl-1,11-dioxo-1,4,4a,5,5a,6,11,12a-octahydrotetracene-2-carboxamide methanesulfonate, reference compound] |  |  |  |  |  |  |  |  |  |  |  |  |  |  |  |  | Blocking the replication of vaccinia virus in cells (vaccinia virus [10]): effective in blocking the replication of vaccinia virus in cells; Cell Cytotoxicity (BSC-1 cells; methanesulfonate): 17%; inhibition at 100 µM (vaccinia virus [8]): 40%; IC50 (vaccinia virus [11]): > 200 µM; CC50 [12]: > 200 µM |
| CCOC(=O)c1c(NC(=O)/C=C/C(=O)O)sc(C)c1-c1ccccc1 [Compound 2] | 25 µM | 25 µM | No | no | 374 µM | 374 µM |  |  | 30 µM | 30 µM | 159 µM |  |  |  | 159 µM |  |  |
| CCn1c2ccccc2c2ccc(/C=N/n3cnnc3)cc21 [Compound 3] | 50 µM | 50 µM | No | no | 131 µM | 131 µM | >4.0 | >4.0 | 50 µM | 50 µM | >200 µM | 36 µM | 3 µM |  | > 200 µM | 3 µM | CC50 (BS-C-1 cells; [19]): 36 µM |
| CCS(=O)(=O)N1CCN=C1SCc1ccc(Cl)cc1Cl [Compound 10] | 25 µM | 25 µM | No | no | 188 µM | 188 µM |  |  | 90 µM | 90 µM | 166 µM |  |  | just slightly insoluble at the EC50 | 166 µM |  | CC50 at 120 h (WST-1 cytotoxicity assay): 25 µM |
| Nc1ccn(C[C@@H](CO)OCP(=O)(O)O)c(=O)n1 [Cidofovir, reference compound] | 50 µM | 50 µM | No | no |  |  | >18.9 |  | 132 µM | 132 µM | >500 µM | >500 µM | 300 µM |  |  | 300 µM | CC50 at 20 h (WST-1 cytotoxicity assay): > 2500 µM; CC50 (BS-C-1 cells; [19]): > 500 µM |
| O=C(Nc1ccccc1C(=O)O)OCC1c2ccccc2-c2ccccc21 [Compound 9] | 75 µM | 75 µM | No | no | 26 µM | 26 µM | >1.9 | >1.9 | 104 µM | 104 µM | >200 µM | 40 µM | 20 µM |  | > 200 µM | 20 µM | CC50 at 72 h (WST-1 cytotoxicity assay): 30 to 50 µM |
| N=C1S/C(=C/c2ccco2)C(=O)N1c1nccs1 [Compound 12] | 75 µM | 75 µM | No | no | 32 µM | 32 µM | >1.2 | >1.2 | 80 µM | 80 µM | >100 µM | >100 µM | 50 µM | just slightly insoluble at the EC50 | > 100 µM |  | CC50 at 72 h (WST-1 cytotoxicity assay): > 50 µM |
